Assay results: patent publication US20250304644A1, “PEPTIDES TRIPLE AGONISTS OF GIP, GLP-1 AND GLP-2” (BAINAN BIOTECH APS, priority 2021, published 2025)
Where two headings read alike, the source gives them in different places. *1 amine or outer side, *2 acyl side, *3 side chain or, on linkers, in order; H or OH if unused. Where a SMILES comes first, the peptide text is derived from it. Where no end group is shown, it is not given here. Side-chain parts run from the residue outwards. The star is where a group is joined. C18 diacid = O=C(O)CCCCCCCCCCCCCCCCC(=O)*; γGlu = O=C(O)[C@H](CCC(=O)[*:2])N[*:1]; AEEA = NCCOCCOCC(=O)O

Tests used:
Type in all cases: cell-based
human GIPR = molecular target: T1, human GIPR (Homo sapiens, UniProt P48546); test: cAMP assay (HitHunter) in transiently transfected COS-7 cells expressing human GIPR; settings: for EC50: cAMP, COS-7 cells, human GIPR
T1 construct: host or cells: COS-7
T1 sequence (P48546 22-466): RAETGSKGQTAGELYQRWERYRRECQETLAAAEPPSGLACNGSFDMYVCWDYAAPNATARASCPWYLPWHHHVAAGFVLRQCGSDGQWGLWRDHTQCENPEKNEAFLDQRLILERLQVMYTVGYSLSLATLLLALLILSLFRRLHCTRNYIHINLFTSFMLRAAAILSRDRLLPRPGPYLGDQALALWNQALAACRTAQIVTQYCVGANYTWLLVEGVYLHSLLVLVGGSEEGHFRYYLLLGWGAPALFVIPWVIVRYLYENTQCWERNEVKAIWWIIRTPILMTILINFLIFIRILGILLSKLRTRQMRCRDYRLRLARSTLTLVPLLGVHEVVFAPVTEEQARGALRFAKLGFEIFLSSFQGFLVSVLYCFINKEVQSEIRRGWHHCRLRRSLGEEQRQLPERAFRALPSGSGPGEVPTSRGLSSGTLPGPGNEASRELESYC

human GLP-2R = molecular target: T2, human GLP-2R (Homo sapiens, UniProt O95838); test: cAMP assay (HitHunter) in transiently transfected COS-7 cells expressing human GLP-2R
T2 construct: host or cells: COS-7
T2 sequence (O95838 1-553): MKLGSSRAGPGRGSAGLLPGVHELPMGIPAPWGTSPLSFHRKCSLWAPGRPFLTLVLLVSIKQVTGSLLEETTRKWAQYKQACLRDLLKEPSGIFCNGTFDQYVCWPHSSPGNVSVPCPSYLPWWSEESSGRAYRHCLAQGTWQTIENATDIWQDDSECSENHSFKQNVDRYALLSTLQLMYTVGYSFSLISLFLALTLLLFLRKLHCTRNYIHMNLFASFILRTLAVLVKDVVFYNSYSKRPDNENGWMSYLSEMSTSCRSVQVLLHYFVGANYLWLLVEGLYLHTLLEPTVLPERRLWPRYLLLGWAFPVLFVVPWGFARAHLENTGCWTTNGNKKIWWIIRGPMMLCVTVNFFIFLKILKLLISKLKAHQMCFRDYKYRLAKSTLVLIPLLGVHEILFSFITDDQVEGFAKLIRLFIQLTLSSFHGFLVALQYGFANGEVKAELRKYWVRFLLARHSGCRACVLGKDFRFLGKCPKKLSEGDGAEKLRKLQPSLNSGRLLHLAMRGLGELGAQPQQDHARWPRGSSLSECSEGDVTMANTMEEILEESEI
Procedure: The next day the assay was initiated by washing with HEPES buffered saline (HBS) and followed by an incubation step with assay buffer (HBS added 1 mM isobutyl-1-methylxanthine (IBMX)) for 30 min at 37° C. The ligands were then added and incubated for an additional 30 min at 37° C. After ligand incubation, the HitHunter® CAMP assay (Eurofins DiscoverX, Fremont, […] USA) was carried out according to the manufacturer's instructions. […] The potencies (EC50 values) were determined by nonlinear regression using GraphPad Prism 9 (San Diego, California, USA). Sigmoid curves were fitted logistically. The efficacies (Emax values) were determined by normalization to the highest concentration applied of the endogenous ligand for each receptor.

human GLP-1R = molecular target: T3, human GLP-1R (Homo sapiens, UniProt P43220); test: cAMP assay (HitHunter) in transiently transfected COS-7 cells expressing human GLP-1R
T3 construct: host or cells: COS-7
T3 sequence (P43220 24-463): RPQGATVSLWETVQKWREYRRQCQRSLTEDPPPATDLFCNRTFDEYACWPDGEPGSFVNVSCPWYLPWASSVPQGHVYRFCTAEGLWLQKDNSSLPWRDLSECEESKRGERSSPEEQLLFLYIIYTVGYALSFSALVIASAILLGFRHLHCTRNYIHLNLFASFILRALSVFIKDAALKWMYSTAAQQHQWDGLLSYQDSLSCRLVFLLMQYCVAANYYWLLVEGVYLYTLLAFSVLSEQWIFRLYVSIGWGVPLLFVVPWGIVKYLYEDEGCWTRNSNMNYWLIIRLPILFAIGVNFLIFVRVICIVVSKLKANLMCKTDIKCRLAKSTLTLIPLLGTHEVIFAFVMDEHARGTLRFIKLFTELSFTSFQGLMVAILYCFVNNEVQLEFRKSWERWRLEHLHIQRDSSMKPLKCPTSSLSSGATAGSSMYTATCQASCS

human SNAP-tagged GIPR = molecular target: T4, human SNAP-tagged GIPR (Homo sapiens, UniProt P48546); test: Receptor internalization assay, HEK293A cells expressing human SNAP-tagged GIPR; settings: for Relative hGIPR internalization (%): relative to hGIP 1-42 = 100
T4 construct: host or cells: HEK293A
T4 sequence (P48546 22-466): T1 sequence (P48546 22-466)

[1] = COS-7, normalized to highest concentration of the endogenous ligand, read-out: Efficacy GIPR (Emax)
[2] = COS-7, normalized to highest concentration of the endogenous ligand, read-out: Efficacy GLP-2R (Emax)
[3] = COS-7, normalized to highest concentration of the endogenous ligand, read-out: Efficacy GLP-1R (Emax)
[4] = cAMP, COS-7 cells, human GLP-1R, read-out: EC50 (nM) GLP-1R
[5] = AUC of sigmoid curves up to 1 μM, 60 minutes at 37° C.

Row | Emax (human GIPR; [1]) [%] | EC50 (human GIPR) [nM] | Emax (human GLP-2R; [2]) [%] | GLP-2R activation (in words) (human GLP-2R; cAMP, fatty acid at C-terminus of 1-33 or 1-34 backbone) | Emax (human GLP-1R; [3]) [%] | EC50 (human GLP-1R; [4]) [nM] | Absolute hGIPR internalization (AUC) (human SNAP-tagged GIPR; [5]) | Relative hGIPR internalization (%) (human SNAP-tagged GIPR) | Molecule | Emax (human GIPR; COS-7, read-out: Efficacy GIPR (Emax)) [%] | Emax (human GLP-2R; COS-7, read-out: Efficacy GLP-2R (Emax)) [%] | EC50 (human GLP-1R) [nM] | Emax (human GLP-1R; COS-7, read-out: Efficacy GLP-1R (Emax)) [%] | Absolute hGIPR internalization (AUC) (human SNAP-tagged GIPR)
1 | 92 | 0.631 | 94 | reduction in GLP-2R activation | 106 | 0.06 | 8.9 | 24 | CC[C@H](C)[C@H](NC(=O)[C@H](Cc1ccccc1)NC(=O)[C@H](CC(=O)O)NC(=O)[C@H](CCCNC(=N)N)NC(=O)[C@H](C)NC(=O)[C@H](C)NC(=O)[C@H](CC(C)C)NC(=O)[C@H](CC(N)=O)NC(=O)[C@H](CC(=O)O)NC(=O)[C@H](CC(C)C)NC(=O)[C@@H](NC(=O)[C@@H](NC(=O)[C@H](CO)NC(=O)[C@H](Cc1ccc(O)cc1)NC(=O)[C@H](CC(=O)O)NC(=O)[C@H](CO)NC(=O)[C@@H](NC(=O)[C@H](Cc1ccccc1)NC(=O)[C@@H](NC(=O)CNC(=O)[C@H](CC(=O)O)NC(=O)[C@H](C)NC(=O)[C@@H](N)Cc1c[nH]cn1)[C@@H](C)O)[C@@H](C)O)[C@@H](C)O)[C@@H](C)CC)C(=O)N[C@@H](CC(N)=O)C(=O)N[C@@H](Cc1c[nH]c2ccccc12)C(=O)N[C@@H](CC(C)C)C(=O)N[C@H](C(=O)N[C@@H](CCC(N)=O)C(=O)N[C@H](C(=O)N[C@@H](CCCCN)C(=O)NCC(=O)N[C@@H](CCCCN)C(=O)N[C@@H](CCCCNC(=O)CC[C@H](NC(=O)CCCCCCCCCCCCCCCCC(=O)O)C(=O)O)C(=O)O)[C@@H](C)O)[C@@H](C)CC [Compound 19] (H-HADGTFTSDYSTILDNLAARDFINWLIQTKGKK([γGlu-C18 diacid])-OH; N-terminus assumed) | – | – | – | – | –
2 | 107 | 0.398 | 117 | – | 116 | 0.05 | 13.1 | 35 | H-HADGTFTSDYSTILDKLAARDFINWLIQTKGKKNDWK([AEEA-AEEA-γGlu-C18 diacid])HNITQ-OH [Compound 25] | – | – | – | – | –
3 | 96 | 0.398 | 91 | – | 113 | 0.05 | 15.0 | 41 | HADGTFTSDYSTILDKLAARDFINWLIQTKGKK([AEEA-AEEA-γGlu-C18 diacid])NDWKHNITQ-OH [Compound 24] | – | – | – | – | –

Row | Molecule | Emax (human GIPR; [1]) [%] | EC50 (human GIPR) [nM] | Emax (human GLP-2R; [2]) [%] | GLP-2R activation (in words) (human GLP-2R; cAMP, fatty acid at C-terminus of 1-33 or 1-34 backbone) | Emax (human GLP-1R; [3]) [%] | EC50 (human GLP-1R; [4]) [nM] | Absolute hGIPR internalization (AUC) (human SNAP-tagged GIPR; [5]) | Relative hGIPR internalization (%) (human SNAP-tagged GIPR) | Emax (human GIPR; COS-7, read-out: Efficacy GIPR (Emax)) [%] | Emax (human GLP-2R; COS-7, read-out: Efficacy GLP-2R (Emax)) [%] | EC50 (human GLP-1R) [nM] | Emax (human GLP-1R; COS-7, read-out: Efficacy GLP-1R (Emax)) [%] | Absolute hGIPR internalization (AUC) (human SNAP-tagged GIPR)
4 | HADGTFTSDYSTILDKK([AEEA-AEEA-γGlu-C18 diacid])AARDFINWLIQTKGKKNDWKHNITQ [Compound 23] | – | – | – | – | – | – | – | 3 | 82 | 95 | 0.05 | 105 | 1.2
